Experiments:
LP-1 cells = assay: Biological Assay C: antiproliferative activity on LP-1 cells (CellTiter-Glo); assay type: cell-based, human; settings: Homo sapiens, LP-1, 72 h, 72 hr treatment, averaged values
Description: (§1) Determination of Antiproliferative Activity on LP-1, L-363 and JJN-3 Cells
(§2) All compounds tested were dissolved in DMSO and further dilutions were made in culture medium. Final DMSO concentration was 0.3% (v/v) in cell proliferation assays. Viability was assessed using CellTiter-Glo cell viability assay kit (Promega). The human LP-1, L-363 and JJN-3 cells (DSMZ) were cultured in RPMI 1640 medium supplemented with 2 mM L-glutamine, and 10% fetal calf serum (PAA). Cells were routinely kept as suspension cells at 37° C. in a humidified 5% CO2 atmosphere. Cells were passaged at a seeding density of 0.2×10^6/ml twice a week. Cells were seeded in black tissue culture treated 96-well plates (Perkin Elmer). Densities used for plating ranged from 2,000 to 6,000 cells per well in a total volume of 75 μl medium. After twenty four hours, drugs and/or solvents were added (25 μl) to a final volume of 100 μl. Following 72 hr of treatment plates were removed from the incubator and allowed to equilibrate to room temperature for approx 10 min. 100 ut CellTiter-Glo reagent was added to each well that was then covered (Perkin Elmer Topseal) and shaken on plate shaker for 10 min. Luminescence was measured on a HTS Topcount (Perkin Elmer). Within an experiment, the results for each treatment were the mean of 2 replicate wells. For initial screening purposes, compounds were tested using a 9 point dilution curve (serial 1:3 dilutions). For each experiment, controls (containing no drug) and a blank incubation (containing cells read at the time of compound addition) were run in parallel. The blank value was subtracted from all control and sample values. For each sample, the mean value for cell growth (in relative light units) was expressed as a percentage of the mean value for cell growth of the control.

[1] = target: T1, Recombinant Human NF-kappaB-Inducing Kinase (NIK/MAP3K14) (Homo sapiens, UniProt Q99558); assay: Biological Assay A2: inhibition of auto-phosphorylation of recombinant human NIK/MAP3K14 (AlphaScreen); assay type: biochemical; settings: 0.2 nM GST-tagged NIK, 25 microM ATP, 1 h at 25° C., averaged values
Description: Inhibition of Auto-Phosphorylation of Recombinant Human NF-kappaB-Inducing Kinase (NIK/MAP3K14) Activity (AlphaScreen®)
NIK/MAP3K14 auto-phosphorylation activity was measured using the AlphaScreen® (αscreen) format (Perkin Elmer). All compounds tested were dissolved in dimethyl sulfoxide (DMSO) and further dilutions were made in assay buffer. Final DMSO concentration was 1% (v/v) in assays. Assay buffer was 50 mM Tris pH 7.5 containing 1 mM EGTA (ethylene glycol tetraacetic acid), 1 mM DTT (dithiothreitol), 0.1 mM Na3VO4, 5 mM MgCl2, 0.01% Tween® 20. Assays were carried out in 384 well Alphaplates (Perkin Elmer). Incubations consisted of compound, 25 microM Adenosine-5′-triphosphate (ATP), and 0.2 nM NIK/MAP3K14. Incubations were initiated by addition of GST-tagged NIK/MAP3K14 enzyme, carried out for 1 h at 25° C. and terminated by addition of stop buffer containing anti-phospho-IKK Ser176/180 antibody. Protein A Acceptor and Glutathione-Donor beads were added before reading using an EnVision® Multilabel Plate Reader (Perkin Elmer). Signal obtained in the wells containing blank samples was subtracted from all other wells and IC50's were determined by fitting a sigmoidal curve to % inhibition of control versus Log10 compound concentration.

L-363 cells = assay: Biological Assay C: antiproliferative activity on L-363 cells (CellTiter-Glo); assay type: cell-based, human; settings: Homo sapiens, L-363, 72 h, 72 hr treatment, averaged values
Description: as §1, §2

[2] = tested on: P-IKKα levels in L363 cells; assay: Biological Assay B: effect of compounds on P-IKKα levels in L363 cells; assay type: cell-based; settings: Homo sapiens, L-363, BAFF stimulated, 2 hr treatment, averaged values, read-out: IKKα Cellular IC50
Description: Effect of Compounds on P-IKKα Levels in L363 Cells
All compounds tested were dissolved in DMSO and further dilutions were made in culture medium. Final DMSO concentration was 1% (v/v) in cell assays. The human L363 cells (ATCC) were cultured in RPMI 1640 medium supplemented with GlutaMax and 10% fetal calf serum (PAA). Cells were routinely maintained at densities of 0.2×10^6 cells per ml—1×10^6 cells per ml at 37° C. in a humidified 5% CO2 atmosphere. Cells were passaged twice a week splitting back to obtain the low density. Cells were seeded in 96 well plates (Nunc 167008) at 2×10^6 per ml media in a volume of 75 μl per well plus 25 μl 1 μg/ml recombinant human B-cell activating factor (BAFF/BLyS/TNFSF13B). Seeded cells were incubated at 37° C. in a humidified 5% CO2 atmosphere for 24 hr. Drugs and/or solvents were added (20 μl) to a final volume of 120 μl. Following 2 hr treatment plates were removed from the incubator and cell lysis was achieved by the addition of 30 μl 5× lysis buffer followed by shaking on a plate shaker at 4° C. for 10 min. At the end of this incubation lysed cells were centrifuged at 800×g for 20 min at 4° C. and the lysate was assessed for P-IKKα levels by sandwich immuno-assay carried out in anti-rabbit antibody coated Mesoscale plates. Within an experiment, the results for each treatment were the mean of 2 replicate wells. For initial screening purposes, compounds were tested using an 8 point dilution curve (serial 1:3 dilutions). For each experiment, controls (containing MG132 and BAFF but no test drug) and a blank incubation (containing MG132 and BAFF and 10 μM ADS125117, a test concentration known to give full inhibition) were run in parallel. The blank incubation value was subtracted from all control and sample values. To determine the IC50 a sigmoidal curve was fitted to the plot of % inhibition of control P-IKKα levels versus Log10 compound concentration.

[3] = target: T1, Recombinant Human NF-kappaB-Inducing Kinase (NIK/MAP3K14); assay: Biological Assay A: inhibition of recombinant human NIK/MAP3K14 activity (MSD, MBP substrate); settings: 10 nM NIK, 25 μM ATP, 1 h at 25° C.; averaged over all measurements on all batches; read-out: Biochemical (MSD IC50)
Description: Inhibition of Recombinant Human NF-kappaB-Inducing Kinase (NIK/MAP3K14) Activity Assay buffer was 50 mM Tris pH 7.5 containing 1 mM EGTA (ethylene glycol tetraacetic acid), 1 mM DTT (dithiothreitol), 0.1 mM Na3VO4, 5 mM MgCl2, 0.01% Tween® 20. Assays were carried out in 384 well Mesoscale high binding plates which had been coated with myelin basic protein (MBP) and blocked with bovine serum albumin to prevent non-specific protein binding. All compounds tested were dissolved in dimethyl sulfoxide (DMSO) and further dilutions were made in assay buffer. Final DMSO concentration was 1% (v/v) in assays. Incubations consisted of compound (1% DMSO in control and blank wells), 25 μM Adenosine-5′-triphosphate (ATP), and 10 nM NIK/MAP3K14 substituting enzyme with buffer in the blank wells. Incubations were carried out for 1 h at 25° C. and were followed by washing and sequential incubation with rabbit anti-phospho-MBP and anti-rabbit Ig Sulfotag antibody before reading bound Sulfotag on a Mesoscale Discovery. Signal obtained in the wells containing blank samples was subtracted from all other wells and ICso's were determined by fitting a sigmoidal curve to % inhibition of control versus Log10 compound concentration.

JJN-3 cells = assay: Biological Assay C: antiproliferative activity on JJN-3 cells (CellTiter-Glo); assay type: cell-based, human; settings: Homo sapiens, JJN-3, 72 h, 72 hr treatment, averaged values
Description: as §1, §2

T1 sequence (Q99558 whole entry): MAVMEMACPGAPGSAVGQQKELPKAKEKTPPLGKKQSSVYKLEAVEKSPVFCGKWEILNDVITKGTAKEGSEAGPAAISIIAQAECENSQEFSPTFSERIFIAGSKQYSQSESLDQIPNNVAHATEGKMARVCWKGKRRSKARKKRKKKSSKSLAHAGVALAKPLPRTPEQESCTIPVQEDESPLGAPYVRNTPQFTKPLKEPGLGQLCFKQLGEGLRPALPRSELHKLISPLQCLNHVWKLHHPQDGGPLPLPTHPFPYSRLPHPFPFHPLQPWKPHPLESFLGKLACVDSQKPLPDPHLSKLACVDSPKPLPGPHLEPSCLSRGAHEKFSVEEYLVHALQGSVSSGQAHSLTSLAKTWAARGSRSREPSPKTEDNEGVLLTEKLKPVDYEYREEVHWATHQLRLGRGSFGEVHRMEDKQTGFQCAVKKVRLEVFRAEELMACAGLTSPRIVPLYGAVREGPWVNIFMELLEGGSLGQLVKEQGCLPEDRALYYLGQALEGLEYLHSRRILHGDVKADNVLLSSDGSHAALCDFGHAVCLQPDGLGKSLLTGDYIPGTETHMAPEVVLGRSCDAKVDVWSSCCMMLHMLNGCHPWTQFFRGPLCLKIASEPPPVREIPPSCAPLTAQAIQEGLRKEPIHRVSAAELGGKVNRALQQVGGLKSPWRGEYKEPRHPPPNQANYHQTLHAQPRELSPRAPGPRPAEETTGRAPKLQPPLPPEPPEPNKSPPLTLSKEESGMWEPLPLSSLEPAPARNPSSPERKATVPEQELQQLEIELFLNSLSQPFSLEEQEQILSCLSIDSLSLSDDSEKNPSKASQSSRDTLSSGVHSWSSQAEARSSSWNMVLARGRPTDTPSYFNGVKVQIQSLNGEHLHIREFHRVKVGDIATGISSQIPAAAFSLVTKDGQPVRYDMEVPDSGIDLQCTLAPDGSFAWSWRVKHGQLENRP

CCn1cc(-c2c[nH]nc2C)c2cc(C#CC(C)(C)O)ccc21 [Compound 3]
EC50 (LP-1 cells): 3160 nM | IC50 [1]: 35 nM | EC50 (L-363 cells): 3120 nM | IC50 [2]: 139 nM | IC50 [3]: 71 nM | EC50 (JJN-3 cells): 1860 nM

CC(C)(O)C#Cc1ccc2c(c1)c(-c1cn[nH]c1)cn2CC1CCOC1 (stereo not drawn) [Compound 5]
EC50 (LP-1 cells): 1890 nM | IC50 [1]: 25 nM | EC50 (L-363 cells): 1830 nM | IC50 [2]: 145 nM | IC50 [3]: 38 nM | EC50 (JJN-3 cells): 1410 nM

CC(C)(O)C#Cc1ccc2c(c1)c(-c1cn[nH]c1)cn2CC1COC1 [Compound 6]
EC50 (LP-1 cells): 1950 nM | IC50 [1]: 66 nM | EC50 (L-363 cells): 704 nM | IC50 [2]: 73 nM | IC50 [3]: 6 nM | EC50 (JJN-3 cells): 1080 nM

COCCn1cc(-c2cn[nH]c2)c2cc(C#CC(C)(C)O)ccc21 [Compound 7]
EC50 (LP-1 cells): 2180 nM | IC50 [1]: 73 nM | EC50 (L-363 cells): 1180 nM | IC50 [2]: 175 nM | IC50 [3]: 11 nM | EC50 (JJN-3 cells): 1410 nM

CC(C)n1cc(-c2cn[nH]c2)c2cc(C#CC(C)(C)O)ccc21 [Compound 8]
EC50 (LP-1 cells): 219 nM | IC50 [1]: 14 nM | EC50 (L-363 cells): 221 nM | IC50 [2]: 18 nM | IC50 [3]: 13 nM | EC50 (JJN-3 cells): 218 nM

CCn1cc(-c2cn[nH]c2)c2cc(C#CC(C)(C)O)ccc21 [Compound 9]
EC50 (LP-1 cells): 298 nM | IC50 [1]: 43 nM | EC50 (L-363 cells): 332 nM | IC50 [2]: 54 nM | IC50 [3]: 8 nM | EC50 (JJN-3 cells): 418 nM

CC(C)(O)C#Cc1ccc2c(c1)c(-c1cn[nH]c1)cn2CC(C)(C)O [Compound 10]
EC50 (LP-1 cells): 947 nM | IC50 [1]: 110 nM | EC50 (L-363 cells): 759 nM | IC50 [2]: 111 nM | IC50 [3]: 38 nM | EC50 (JJN-3 cells): 723 nM

CC(C)(O)C#Cc1ccc2c(c1)c(-c1cn[nH]c1)cn2CCO [Compound 11]
EC50 (LP-1 cells): 483 nM | IC50 [1]: 65 nM | EC50 (L-363 cells): 340 nM | IC50 [2]: 83 nM | IC50 [3]: 16 nM | EC50 (JJN-3 cells): 394 nM

Cn1cc(-c2cn[nH]c2)c2cc(C#CC(C)(C)O)ccc21 [Compound 12]
EC50 (LP-1 cells): 769 nM | IC50 [1]: 65 nM | EC50 (L-363 cells): 700 nM | IC50 [2]: 38 nM | IC50 [3]: 41 nM | EC50 (JJN-3 cells): 754 nM

CC(O)(C#Cc1ccc2[nH]cc(-c3cn[nH]c3)c2c1)c1nccs1 (stereo not drawn) [Compound 13]
EC50 (LP-1 cells): 9910 nM | IC50 [1]: 7 nM | EC50 (L-363 cells): 5520 nM | IC50 [2]: 16 nM | IC50 [3]: 9 nM | EC50 (JJN-3 cells): 704 nM

OC1(C#Cc2ccc3[nH]cc(-c4cn[nH]c4)c3c2)CCCC1 [Compound 14]
EC50 (LP-1 cells): 5440 nM | IC50 [1]: 28 nM | EC50 (L-363 cells): 4050 nM | IC50 [2]: 300 nM | IC50 [3]: 30 nM | EC50 (JJN-3 cells): 2200 nM
